In patent publication EP4603105A1, “PHARMACEUTICAL COMPOSITION CONTAINING CYCLIC COMPOUND HAVING SELECTIVE KRAS INHIBITORY EFFECT AGAINST HRAS AND NRAS” (CHUGAI SEIYAKU KABUSHIKI KAISHA, priority 2022, dated 2024):
Where a SMILES comes first, the peptide text is derived from it. Bridges are numbered along the chain shown (N, C = ends). [ ]: non-standard residue; d: D form. The star is where a group is joined. hPhe(3-Cl-4-CF3) = N[C@@H](CCc1ccc(C(F)(F)F)c(Cl)c1)C(=O)O; NPrPhe(4-CF3) = CCCN[C@@H](Cc1ccc(C(F)(F)F)cc1)C(=O)O; NMeGly(cPent) = CN[C@H](C(=O)O)C1CCCC1; NMeD = CN[C@@H](CC(=O)O)C(=O)O; NMeL = CN[C@@H](CC(C)C)C(=O)O; Pip = O=C(O)[C@@H]1CCCCN1; Morpholide = C1CN(*)CCO1; Ac5c = NC1(C(=O)O)CCCC1; NEtG = CCNCC(=O)O; Sar = CNCC(=O)O

Columns and labels:
[1] = molecular target: GDP-bound NRAS wild-type protein (Homo sapiens, UniProt P01111); assay: Binding to NRAS by surface plasmon resonance (SPR), KD and KD ratio to KRAS
GDP-bound NRAS wild-type protein, sequence (P01111 whole entry): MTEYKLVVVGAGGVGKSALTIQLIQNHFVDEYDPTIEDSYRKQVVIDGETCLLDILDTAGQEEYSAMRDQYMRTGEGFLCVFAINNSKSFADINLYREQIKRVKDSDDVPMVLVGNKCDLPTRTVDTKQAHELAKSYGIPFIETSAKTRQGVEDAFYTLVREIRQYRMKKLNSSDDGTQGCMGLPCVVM
How it was run: (§1)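 SPR, 30°C: Avi-biotin RAS·GDP captured via Biotin CAPture (~100–300 RU); running buffer HBS pH 7.4, 1 mM DTT, 10 mM MgCl2, 0.01% Tween 20, 10 µM GDP, 4% DMSO. Single-cycle kinetics, 100 µL/min, 75 s injections; 1:1 model → KD.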

HRAS wild-type protein = HRAS wild-type protein (Homo sapiens, UniProt P01112); assay: Binding to HRAS by surface plasmon resonance (SPR), KD and KD ratio to KRAS
HRAS wild-type protein, sequence (P01112 whole entry): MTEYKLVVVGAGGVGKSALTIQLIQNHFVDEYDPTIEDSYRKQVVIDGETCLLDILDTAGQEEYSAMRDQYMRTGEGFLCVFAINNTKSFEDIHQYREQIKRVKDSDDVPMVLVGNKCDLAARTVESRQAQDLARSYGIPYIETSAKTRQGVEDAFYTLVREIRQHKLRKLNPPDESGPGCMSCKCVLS
How it was run: as §1

[2] = tested on: human lung cancer strain NCI-H441; assay type: cell-based
How it was run: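 Proliferation was scored by […] measured after the reagent was added to cultures kept at 37°C in 5% carbon dioxide.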

[3] = molecular target: GDP-bound KRAS wild-type protein (Homo sapiens, UniProt P01116); assay: Binding to KRAS by surface plasmon resonance (SPR), dissociation constant KD; settings: 1:1 binding model
GDP-bound KRAS wild-type protein, sequence (P01116 1-188 isoform P01116-2): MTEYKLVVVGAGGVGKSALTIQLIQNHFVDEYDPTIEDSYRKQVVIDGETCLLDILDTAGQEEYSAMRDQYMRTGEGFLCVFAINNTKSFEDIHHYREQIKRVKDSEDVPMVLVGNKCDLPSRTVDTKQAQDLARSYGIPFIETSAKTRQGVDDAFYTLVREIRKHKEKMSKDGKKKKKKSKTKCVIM
How it was run: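 Running buffer contained 10 µM GDP and 10 mM MgCl2 to keep RAS in the GDP state, with 4% DMSO at pH 7.4. Compounds were flowed at 100 µL/min in 75 s steps of rising concentration over captured biotin-Avi RAS at 30°C. Sensorgrams were fitted 1:1 for KD.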

[4] = ratio of KD for GDP-bound NRAS wild-type protein to KD for KRAS
[5] = ratio of KD for HRAS wild-type protein to KD for KRAS
[6] = ratio of KD value for GDP-bound NRAS wild-type protein to KD value for KRAS (SPR)
[7] = ratio of KD value for HRAS wild-type protein to KD value for KRAS (SPR)
[8] = ratio of the KD value with respect to GDP-bound NRAS wild-type protein to the KD value with respect to KRAS
[9] = ratio of the KD value with respect to HRAS wild-type protein to the KD value with respect to KRAS

SMILES | IC50 [2] [nM] | Kd [3] [nM] | Kd ([3]; Single Cycle Kinetics) [nM] | NRAS /KRAS [1, 4] | HRAS /KRAS (HRAS wild-type protein; [5]) | NRAS /KRAS [1, 6] | HRAS /KRAS (HRAS wild-type protein; [7]) | NRAS /KRAS [1, 8] | HRAS /KRAS (HRAS wild-type protein; [9])
CC[C@H](C)[C@@H]1NC(=O)[C@H](CC(C)C)N(C)C(=O)C[C@@H](C(=O)N2C3CCC2COC3)N(C)C(=O)[C@H](C2CCCC2)N(C)C(=O)C2(CCCC2)NC(=O)[C@@H]2CCCN2C(=O)[C@H](CCc2cc(F)c(C(F)(F)F)c(F)c2)NC(=O)CN(C)C(=O)[C@H](Cc2ccc(C(F)(F)F)cc2)N2CCCCC[C@@H](C2=O)N(C)C(=O)CN(C)C1=O [PP0511] | 414 |  | 16 |  |  |  |  | A (a compound having 10 or more and less than 20 is denoted as A) | B (a compound having 3 or more and less than 10 is denoted as B)
CC[C@H](C)[C@@H]1NC(=O)[C@H](CC2CC2)N(C)C(=O)C[C@@H](C(=O)N(C)C)N(C)C(=O)[C@H](C2CCCC2)N(C)C(=O)C2(CC(C)(C)C2)NC(=O)[C@@H]2C[C@@H](C)CN2C(=O)[C@H](CCc2ccc(C(F)(F)F)c(OC)c2)NC(=O)CN(C)C(=O)[C@H](Cc2ccc(C)cc2)N2CC/C=C\C[C@@H](C2=O)N(C)C(=O)CN(C)C1=O [PP1901] | 7.6 |  | 0.098 |  |  |  |  | A (a compound having 10 or more and less than 20 is denoted as A) | B (a compound having 3 or more and less than 10 is denoted as B)
CCCN1C(=O)CN(C)C(=O)CN(CC)C(=O)[C@H]([C@@H](C)CC)NC(=O)[C@H](CC(C)C)N(C)C(=O)C[C@@H](C(=O)N2CCOCC2)N(C)C(=O)[C@H](C2CCCC2)N(C)C(=O)C2(CCCC2)NC(=O)[C@@H]2CCCCN2C(=O)[C@H](CCc2ccc(C(F)(F)F)c(Cl)c2)NC(=O)CN(C)C(=O)[C@@H]1Cc1ccc(C(F)(F)F)cc1 [PP0297] ([NMeL]I[NEtG][Sar][NPrPhe(4-CF3)][Sar][hPhe(3-Cl-4-CF3)][Pip][Ac5c][NMeGly(cPent)][NMeD]-Morpholide; lactam N-11) | 74.3 | 2.3 |  | B (a compound having 3 or more and less than 10 is denoted as B) | C (A compound having a KD ratio of 0.1 or more and less than 3 is denoted as C) |  |  |  | 

The next lines start with results.

IC50 [2] [nM] | Kd [3] [nM] | Kd ([3]; Single Cycle Kinetics) [nM] | SMILES | NRAS /KRAS [1, 4] | HRAS /KRAS (HRAS wild-type protein; [5]) | NRAS /KRAS [1, 6] | HRAS /KRAS (HRAS wild-type protein; [7]) | NRAS /KRAS [1, 8] | HRAS /KRAS (HRAS wild-type protein; [9])
16.1 | 0.12 |  | CCO[C@@H]1C[C@H]2C(=O)NC3(CC(C)(C)C3)C(=O)N(C)[C@@H](C3CCCC3)C(=O)N(C)[C@H](C(=O)N(C)C)CC(=O)N(C)[C@@H]([C@H](C)OC)C(=O)N[C@@H]([C@@H](C)CC)C(=O)N(C)CC(=O)N(C)[C@H]3C/C=C\CCN(C3=O)[C@@H](Cc3ccc(C)cc3)C(=O)N(C)CC(=O)N[C@@H](CCc3ccc(C(F)(F)F)c(OC)c3)C(=O)N2C1 [PP3185] | A (a compound having 10 or more and less than 20 is denoted as A) | A (a compound having 10 or more and less than 20 is denoted as A) |  |  |  | 
7.6 |  | 0.14 | CCCC[C@H]1C(=O)N[C@@H]([C@@H](C)CC)C(=O)N(C)CC(=O)N(C)[C@H]2C/C=C\CCN(C2=O)[C@@H](Cc2ccc(C(F)(F)F)cc2)C(=O)N(C)CC(=O)N[C@@H](CCc2cc(F)c(C(F)(F)F)c(F)c2)C(=O)N2C[C@H](OCC)C[C@H]2C(=O)NC2(CCC2)C(=O)N(C)[C@@H](C2CCCC2)C(=O)N(C)[C@H](C(=O)N(CC)CC)CC(=O)N1C [PP1576] |  |  | AA (a compound having 20 or more is denoted as AA) | A (a compound having 10 or more and less than 20 is denoted as A) |  | 
86.3 |  | 1.2 | C=CC[C@@H]1NC(=O)[C@H](CC2CC2)N(C)C(=O)C[C@@H](C(=O)N(C)CC=C)N(C)C(=O)[C@H](C2CCCC2)N(C)C(=O)C2(CCC2)NC(=O)[C@@H]2C[C@@H](OCC)CN2C(=O)[C@H](CCc2cc(F)c(C(F)(F)F)c(F)c2)NC(=O)CN(C)C(=O)[C@H](Cc2ccc(C(F)(F)F)cc2)N2CC/C=C\C[C@@H](C2=O)N(C)C(=O)CN(C)C1=O [PP1557] |  |  | A (a compound having 10 or more and less than 20 is denoted as A) | A (a compound having 10 or more and less than 20 is denoted as A) |  | 
